Values after ≈ are worked out from the molar mass of the structure shown. Where a name gives a salt, the structure may show the parent alone. Marks after values point to notes of the source that are not given here.
Tests used:
[1] = Solubility of exemplary therapeutic agents in organic solvents
Source text: In this context, the solubility is indicated as the weight of the dissolved substance (the solute) per volume of the solvent (i.e. the volume of solvent added to the solute).

[2] = 20° C.; cited from earlier work

CN1C[C@H]2c3ccccc3Oc3ccc(Cl)cc3[C@@H]2C1 (relative stereo) [Asenapine maleate, (3aRS,12bRS)-rel-5-Chloro-2,3,3a,12b-tetrahydro-2-methyl-1H-dibenz[2,3:6,7]oxepino[4,5-c]pyrrole]
Solubility ([1]; solvent Acetone): soluble | Solubility ([1]; solvent Benzylalcohol): soluble | Solubility ([1]; solvent DMSO): soluble | Solubility ([1]; solvent Dimethylcarbonate): soluble | Solubility ([1]; solvent EMK): soluble | Solubility ([1]; solvent Ethanol): soluble | Solubility ([1]; solvent Ethyl acetate): soluble | Solubility ([1]; solvent Ethyl formate): soluble | Solubility ([1]; solvent Glycofurol): soluble | Solubility ([1]; solvent Iso propanol): non-soluble | Solubility ([1]; solvent Isopropyl acetate): non-soluble | Solubility ([1]; solvent Isopropyl formate): soluble | Solubility ([1]; solvent Methyl acetate): soluble | Solubility ([1]; solvent NMP): soluble | Solubility ([1]; solvent THF): soluble

CC(C)=O [Aceton]
Solubility in water [2]: soluble

O=C1CCc2ccc(OCCCCN3CCN(c4cccc(Cl)c4Cl)CC3)cc2N1 [Aripiprazole]
Solubility ([1]; solvent Acetone): soluble | Solubility ([1]; solvent Benzyl benzoate): soluble | Solubility ([1]; solvent Benzylalcohol): soluble | Solubility ([1]; solvent DMSO): soluble | Solubility ([1]; solvent EMK): soluble | Solubility ([1]; solvent Ethanol): non-soluble | Solubility ([1]; solvent Ethyl acetate): soluble | Solubility ([1]; solvent Ethyl formate): soluble | Solubility ([1]; solvent Glycofurol): soluble | Solubility ([1]; solvent Isopropyl acetate): non-soluble | Solubility ([1]; solvent Isopropyl formate): soluble | Solubility ([1]; solvent Methyl acetate): soluble | Solubility ([1]; solvent NMP): soluble | Solubility ([1]; solvent THF): soluble | Solubility ([1]; solvent Triacetin): non-soluble

CCCCOC=O [Butyl formate]
Solubility in water [2]: slow decomposition

ClCCl [Dichlormethan]
Solubility in water [2]: 20 g/L (≈ 235 mM)

COC(=O)OC [Dimethyl Carbonate]
Solubility in water [2]: 139 g/L (≈ 1540 mM)

CNCC[C@H](Oc1cccc2ccccc12)c1cccs1 [Duloxetine HCl, (+)-(S)—N-Methyl-3-(naphthalen-1-yloxy)-3-(thiophen-2-yl)propan-1-amine]
Solubility ([1]; solvent Acetone): non-soluble | Solubility ([1]; solvent Benzyl benzoate): non-soluble | Solubility ([1]; solvent Benzylalcohol): soluble | Solubility ([1]; solvent DMSO): soluble | Solubility ([1]; solvent EMK): non-soluble | Solubility ([1]; solvent Ethanol): soluble | Solubility ([1]; solvent Ethyl acetate): non-soluble | Solubility ([1]; solvent Ethyl formate): non-soluble | Solubility ([1]; solvent Glycofurol): soluble | Solubility ([1]; solvent Methyl acetate): non-soluble | Solubility ([1]; solvent Methyl benzoate): non-soluble | Solubility ([1]; solvent NMP): soluble | Solubility ([1]; solvent THF): soluble | Solubility ([1]; solvent Triacetin): non-soluble

CCOC(C)=O [Ethyl acetate]
Solubility in water [2]: 85.3 g/L

CCOC=O [Ethyl formate]
Solubility in water [2]: 105*** g/L

CC(C)OC=O [Isopropyl formate]
Solubility in water [2]: slow decomposition

COC(C)=O [Methyl acetate]
Solubility in water [2]: 319 g/L

CC(=O)C(C)C [Methylisopropylketone]
Solubility in water [2]: 6 g/L (≈ 69.7 mM)

OCCOCCN1CCN(C2=Nc3ccccc3Sc3ccccc32)CC1 [Quetiapine fumarate, 2-(2-(4-dibenzo[b,f][1,4]thiazepine-11-yl-1-piperazinyl)ethoxy)ethanol]
Solubility ([1]; solvent Acetone): non-soluble | Solubility ([1]; solvent Benzylalcohol): soluble | Solubility ([1]; solvent DMSO): soluble | Solubility ([1]; solvent EMK): non-soluble | Solubility ([1]; solvent Ethanol): non-soluble | Solubility ([1]; solvent Ethyl acetate): non-soluble | Solubility ([1]; solvent Ethyl formate): non-soluble | Solubility ([1]; solvent Glycofurol): soluble | Solubility ([1]; solvent Methyl acetate): non-soluble | Solubility ([1]; solvent NMP): soluble | Solubility ([1]; solvent THF): soluble | Solubility ([1]; solvent Triacetin): non-soluble

O=C(c1ccc(OCCN2CCCCC2)cc1)c1c(-c2ccc(O)cc2)sc2cc(O)ccc12 [Raloxifene HCl, [6-hydroxy-2-(4-hydroxyphenyl)-benzothiophen-3-yl]-[4-[2-(1-piperidyl)ethoxy]phenyl]-methanone]
Solubility ([1]; solvent Acetone): non-soluble | Solubility ([1]; solvent Benzyl formate): non-soluble | Solubility ([1]; solvent Benzylalcohol): non-soluble | Solubility ([1]; solvent DMSO): soluble | Solubility ([1]; solvent Dichloromethane): non-soluble | Solubility ([1]; solvent EMK): non-soluble | Solubility ([1]; solvent Ethanol): non-soluble | Solubility ([1]; solvent Ethyl acetate): non-soluble | Solubility ([1]; solvent Ethyl formate): non-soluble | Solubility ([1]; solvent Isopropyl acetate): non-soluble | Solubility ([1]; solvent Isopropyl formate): non-soluble | Solubility ([1]; solvent Methyl acetate): non-soluble | Solubility ([1]; solvent NMP): soluble | Solubility ([1]; solvent Propyl formate): non-soluble | Solubility ([1]; solvent THF): non-soluble

CC(C)c1nc(N(C)S(C)(=O)=O)nc(-c2ccc(F)cc2)c1/C=C/[C@@H](O)C[C@@H](O)CC(=O)O [Rosuvastatin Ca, (3R,5S,6E)-7-[4-(4-fluorophenyl)-2-(N-methylmethanesulfonamido)-6-(propan-2-yl)pyrimidin-5-yl]-3,5-dihydroxyhept-6-enoic acid]
Solubility ([1]; solvent Acetone): soluble | Solubility ([1]; solvent Benzylalcohol): soluble | Solubility ([1]; solvent DMSO): soluble | Solubility ([1]; solvent EMK): soluble | Solubility ([1]; solvent Ethanol): non-soluble | Solubility ([1]; solvent Ethyl acetate): soluble | Solubility ([1]; solvent Ethyl formate): soluble | Solubility ([1]; solvent Glycofurol): soluble | Solubility ([1]; solvent Isopropyl acetate): non-soluble | Solubility ([1]; solvent Isopropyl formate): non-soluble | Solubility ([1]; solvent Methyl acetate): soluble | Solubility ([1]; solvent NMP): soluble | Solubility ([1]; solvent THF): soluble | Solubility ([1]; solvent Triacetin): non-soluble

CCCOC=O [n- Propyl formate]
Solubility in water [2]: 28 g/L

CCCOC(C)=O [n-Propyl acetate]
Solubility in water [2]: 21.2 g/L

CC(=O)OC(C)(C)C [tert. Butyl acetate]
Solubility in water [2]: insoluble

From US20160303102A1, “PROCESS FOR THE PRODUCTION OF DRUG FORMULATIONS FOR ORAL ADMINISTRATION” (Alrise Biosystems GmbH, priority 2013, published 2016)
